Here are results for 14 compounds from patent US10889591B2, “PDE9 inhibitor and use thereof” (Nanjing TransThera Biosciences Co. Ltd., priority 2017, dated 2021).

Data set [1] deals with T1, Human PDE9 (Homo sapiens (Human), UniProt O76083). As to conditions: background statement, in words; cited from earlier work.
The target of data set [2] is T1, Human PDE9. The following applies: background statement; read-out: binding constant (Km) of PDE9; cited from earlier work.
Data set [3] can be described thus: Rat pharmacokinetic evaluation. The data set is classed as in vivo, SD male rats. The following applies: male, Sprague-Dawley, plasma, SD rat; for Tmax / AUC(0-t) / half-life: po, intragastric 5 mg/kg; for Tmax: median; for AUC(0-t): read-out: AUClast po; for half-life: read-out: tz1/2 po (terminal elimination half-life) (converted); for bioavailability: dose iv/po 1/5 mg/kg, read-out: F % (absolute bioavailability). The procedure: Experimental Example 4: Rat Pharmacokinetic Evaluation of the Compounds of the Invention
Aim: The in vivo pharmacokinetic parameters of the compounds in SD male rats (purchased from Beijing Vital River Animal Technology Co., Ltd.) were evaluated and bioavailability of the compounds was examined.
Animal Administration and Sample Collection:
The solution of compounds 65, 90, 107, 158 was intragastrically administered to SD rat at a dose of 5.0 mg/kg.
The experimental compound 76 was dissolved in 30% DMF+30% PEG400+40% saline to prepare a solution. The solution of compound 76 was intragastrically administered to SD rat at a dose of 5.0 mg/kg.
The experimental compound 76 was dissolved in 30% DMF+30% PEG400+40% saline to prepare a solution.
The experimental compounds 84 and 96 were dissolved in 5% DMSO+10% PEG400+85% (28% HP-β-CD) saline to prepare a solution. The solution of compounds 84 and 96 was intragastrically administered to SD rat at a dose of 5.0 mg/kg.
The experimental compounds 84 and 96 were dissolved in 5% DMSO+10% PEG400+85% (28% HP-β-CD) saline to prepare a solution.
The animals were fixed. The tail was heated with a water bath at 10 min before each time point. About 100 μL of blood from tail vein was collected, and then placed in an anti-coagulation tube containing EDTA-K2 after collection. Blood samples were centrifuged at 8000 rpm at 4° C. for 6 min to obtain plasma samples.
The concentration of test sample was output using Analyst 1.6.1 from AB SCIEX.

Another data set is described as follows: in vitro. The following applies: human, microsomes.
The conditions of data set [4]: human; for CLint: microsomes.
A short description of data set [5]: Rat pharmacokinetic evaluation. The data set is classed as in vivo, SD male rats. The following applies: SD rat, intravenous bolus 1 mg/kg; for AUC(0-t) / clearance / half-life: male, Sprague-Dawley, plasma; for AUC(0-t): read-out: AUClast iv; for clearance: read-out: Cl_obs iv (clearance rate) (converted); for half-life: read-out: tz1/2 iv (terminal elimination half-life) (converted).

The target in another data set is PDE8A1 Enzyme (Homo sapiens (Human), UniProt O60658). The experiment in a line: PDE enzymology evaluation, PDE8A1. Type of data set: biochemical. How it is done: (§1) Experimental Example 5: PDE Enzymology Evaluation Method
Sequence of PDE8A1 Enzyme (O60658 whole entry): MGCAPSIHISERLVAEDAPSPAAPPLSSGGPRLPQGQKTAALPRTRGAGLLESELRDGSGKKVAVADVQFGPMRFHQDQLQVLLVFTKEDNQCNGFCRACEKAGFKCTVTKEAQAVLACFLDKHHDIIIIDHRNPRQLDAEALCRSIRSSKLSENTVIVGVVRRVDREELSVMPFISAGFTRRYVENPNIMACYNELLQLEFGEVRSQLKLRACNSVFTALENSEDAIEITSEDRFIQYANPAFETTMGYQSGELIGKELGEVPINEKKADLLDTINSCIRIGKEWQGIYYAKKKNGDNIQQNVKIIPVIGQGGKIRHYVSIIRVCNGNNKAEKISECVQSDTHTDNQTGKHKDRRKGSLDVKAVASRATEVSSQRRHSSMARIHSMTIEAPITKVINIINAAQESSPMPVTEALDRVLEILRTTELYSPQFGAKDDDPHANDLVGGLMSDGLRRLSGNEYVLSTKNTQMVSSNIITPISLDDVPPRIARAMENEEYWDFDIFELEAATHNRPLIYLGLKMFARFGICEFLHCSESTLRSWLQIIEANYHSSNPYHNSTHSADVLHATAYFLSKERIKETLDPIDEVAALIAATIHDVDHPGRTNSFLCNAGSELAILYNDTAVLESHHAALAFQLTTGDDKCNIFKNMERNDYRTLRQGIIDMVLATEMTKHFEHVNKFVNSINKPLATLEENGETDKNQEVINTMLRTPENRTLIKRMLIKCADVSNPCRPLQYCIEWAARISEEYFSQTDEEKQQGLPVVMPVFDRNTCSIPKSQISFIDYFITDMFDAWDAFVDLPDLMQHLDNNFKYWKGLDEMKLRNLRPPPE
(§2) Test substance: Compounds of the invention, prepared by the corresponding examples of the invention
(§3) 1. Experimental materials and instruments
PDE8A1 Enzyme (BPS, Cat. No. 60080)
(§4) 2. Experimental procedure
(§5) Preparation of the compounds: the compounds were prepared into 10 mM compound stock solution in DMSO for long-term storage. The obtained compound stock solution was diluted in 100 times with DMSO to obtain 100 μM compound working mother solution, and then the compound working mother solution was diluted in 3 times with DMSO to obtain 10 concentration gradients of diluted compound mother liquor (100×).
(§6) Incubation with the compounds: A very small amount of liquid pipetting system Echo was used to pipette the diluted compound mother liquor into a 384-well plate. 200 nL diluted compound mother liquor and 10 μL PDE1A1, PDE3A, PDE5A1 and PDE8A1 enzyme solution were added to each compound well. […] In the maximum reading hole (Max), the compound was replaced by solvent. In the minimum reading hole (Min), the compound and enzyme solution were replaced by solvent.
(§7) Detection: Fluorescence readings (F) at 480 nm/535 nm were detected using a microplate reader.
(§8) Calculation: The inhibition rate was calculated as follows, and IC50 was fitted using GraphPad Prism 5.0: […]

The target in the next data set is PDE3A Enzyme (Homo sapiens (Human), UniProt Q14432). The experiment in a line: PDE enzymology evaluation, PDE3A. The data set is classed as biochemical. The procedure:
as §1, §2, §3
PDE3A Enzyme (BPS, Cat. No. 60030)
as §4, §5, §6, §7, §8

A further data set deals with PDE5A1 Enzyme (Homo sapiens (Human), UniProt O76074). The experiment in a line: PDE enzymology evaluation, PDE5A1. Type of data set: biochemical. How it is done:
as §1, §2, §3
PDE5A1 Enzyme (BPS, Cat. No. 60050)
as §4, §5, §6, §7, §8

For a further data set, the target named is PDE1A1 Enzyme (Homo sapiens (Human), UniProt P54750). The experiment in a line: PDE enzymology evaluation, PDE1A1. Type of data set: biochemical. How it is done: as §1, §2, §3
Sequence of PDE1A1 Enzyme (P54750 whole entry, change not shown): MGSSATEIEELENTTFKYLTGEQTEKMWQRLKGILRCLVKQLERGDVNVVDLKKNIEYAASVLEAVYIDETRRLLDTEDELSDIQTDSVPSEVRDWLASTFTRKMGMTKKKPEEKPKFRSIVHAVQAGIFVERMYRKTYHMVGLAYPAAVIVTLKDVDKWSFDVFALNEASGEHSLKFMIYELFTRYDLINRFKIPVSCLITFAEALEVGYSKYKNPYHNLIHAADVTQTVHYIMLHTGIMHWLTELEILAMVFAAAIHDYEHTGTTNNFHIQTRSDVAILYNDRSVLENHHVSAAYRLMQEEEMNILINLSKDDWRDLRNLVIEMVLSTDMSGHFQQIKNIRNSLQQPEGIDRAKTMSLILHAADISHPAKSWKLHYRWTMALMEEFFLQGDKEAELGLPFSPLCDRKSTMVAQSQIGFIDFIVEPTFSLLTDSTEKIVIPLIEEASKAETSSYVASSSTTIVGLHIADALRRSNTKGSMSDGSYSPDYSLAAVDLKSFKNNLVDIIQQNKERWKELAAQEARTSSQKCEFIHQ
PDE1A1 Enzyme (BPS, Cat. No. 60010)
as §4, §5, §6, §7, §8

Data set [6] is described as follows: Canine pharmacokinetic evaluation. The data set is classed as in vivo. The following applies: Beagle dogs. An excerpt:
1. Animal Administration and Sample Collection
2. Sample Analysis Method
3. Data Processing Method

Each structure is given as a SMILES string. Read-outs that look alike come from different tables or passages of the source.

T1 sequence (O76083 whole entry): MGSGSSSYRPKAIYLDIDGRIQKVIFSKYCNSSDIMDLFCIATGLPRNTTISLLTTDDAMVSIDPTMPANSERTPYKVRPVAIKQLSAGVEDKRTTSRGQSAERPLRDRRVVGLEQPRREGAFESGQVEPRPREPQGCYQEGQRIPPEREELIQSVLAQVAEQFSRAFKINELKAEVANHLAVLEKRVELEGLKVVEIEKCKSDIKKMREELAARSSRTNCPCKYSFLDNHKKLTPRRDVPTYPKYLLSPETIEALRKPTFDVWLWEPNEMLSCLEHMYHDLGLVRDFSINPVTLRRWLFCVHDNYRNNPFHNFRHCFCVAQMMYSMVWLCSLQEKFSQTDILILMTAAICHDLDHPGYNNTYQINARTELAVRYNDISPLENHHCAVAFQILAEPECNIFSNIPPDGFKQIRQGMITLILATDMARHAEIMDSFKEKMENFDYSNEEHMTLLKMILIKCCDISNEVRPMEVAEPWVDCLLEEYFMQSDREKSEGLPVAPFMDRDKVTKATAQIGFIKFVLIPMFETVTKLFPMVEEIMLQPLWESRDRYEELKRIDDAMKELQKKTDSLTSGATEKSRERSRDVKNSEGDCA
Sequence of PDE3A Enzyme (Q14432 whole entry): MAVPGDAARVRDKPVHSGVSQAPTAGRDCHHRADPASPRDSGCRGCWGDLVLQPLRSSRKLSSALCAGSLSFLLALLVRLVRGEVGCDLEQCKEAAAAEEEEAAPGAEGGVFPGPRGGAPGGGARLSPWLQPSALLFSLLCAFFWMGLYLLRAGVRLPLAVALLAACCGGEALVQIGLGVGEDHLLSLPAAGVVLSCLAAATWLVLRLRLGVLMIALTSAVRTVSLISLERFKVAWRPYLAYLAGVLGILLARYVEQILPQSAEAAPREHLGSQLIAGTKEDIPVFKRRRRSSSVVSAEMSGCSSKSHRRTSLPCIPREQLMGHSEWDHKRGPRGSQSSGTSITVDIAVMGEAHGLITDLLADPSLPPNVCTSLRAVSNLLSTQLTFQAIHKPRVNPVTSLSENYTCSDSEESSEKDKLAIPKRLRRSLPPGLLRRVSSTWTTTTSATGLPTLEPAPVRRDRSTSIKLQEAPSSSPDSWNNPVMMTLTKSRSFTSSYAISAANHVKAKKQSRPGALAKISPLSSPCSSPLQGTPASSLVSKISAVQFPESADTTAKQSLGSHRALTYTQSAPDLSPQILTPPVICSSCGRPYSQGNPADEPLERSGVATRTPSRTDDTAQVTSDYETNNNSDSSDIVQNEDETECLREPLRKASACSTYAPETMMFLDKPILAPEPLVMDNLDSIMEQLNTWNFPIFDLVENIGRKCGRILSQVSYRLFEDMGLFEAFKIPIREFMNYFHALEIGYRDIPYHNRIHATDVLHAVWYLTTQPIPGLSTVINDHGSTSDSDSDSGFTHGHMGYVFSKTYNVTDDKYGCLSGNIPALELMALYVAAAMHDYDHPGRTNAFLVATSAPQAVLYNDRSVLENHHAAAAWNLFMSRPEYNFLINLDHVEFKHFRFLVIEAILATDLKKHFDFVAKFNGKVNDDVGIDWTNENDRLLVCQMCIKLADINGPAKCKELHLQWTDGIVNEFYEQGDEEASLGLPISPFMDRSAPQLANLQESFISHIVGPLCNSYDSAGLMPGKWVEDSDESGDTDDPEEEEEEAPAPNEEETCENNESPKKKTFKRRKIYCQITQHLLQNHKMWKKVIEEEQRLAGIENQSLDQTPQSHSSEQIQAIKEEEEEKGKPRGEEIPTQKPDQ

Take `CC(=O)Nc1ccc(-c2c[nH]c(=O)cn2)cc1` [SKF94120]: the “inhibition activity on PDE9” value on Human PDE9 [1] was “no or very low inhibition activity”.
Turning to `Nc1ncnc2c1ncn2[C@@H]1O[C@@H]2COP(=O)(O)O[C@H]2[C@H]1O` [cAMP, cyclic adenosine monophosphate], the Michaelis constant (Km) at Human PDE9 [2] was 230 µM.
As to `CCc1cc2c(N3CCC4(CC3)CC4)c(C#N)c(=O)[nH]c2cn1` [Compound 76, 6-ethyl-2-oxo-4-(6-azaspiro[2.5]octane-6-yl)-1,2-dihydro-1,7-naphthyridin-3-carbonitrile], in [3], the Tmax came out at 1 h, the AUC(0-t) is 5750 ng·h/mL, the half-life was 9.6 h and the bioavailability was 113%. In the data set “in vitro”, the half-life was found to be 7.7 h. For the same compound, in data set [4], the “Original drug residual % at 60 min” value is given as 87.3%, the “k” value amounted to 0.0015 min⁻¹ and the CLint is recorded as 0.0030 mL · min^−1 · mg^−1 proteins. In [5], the “Vz_obs iv (apparent distribution volume)” value is 1.25 L/kg, the AUC(0-t) came to 1010 ng·h/mL, the clearance was 17.3 mL/min/kg and the half-life was 0.89 h.
On to `COc1ccc(C2CNC(=O)C2)cc1OC1CCCC1` (centres unmarked) [rolipram], for which the “inhibition activity on PDE9” value on Human PDE9 [1] is recorded as “no or very low inhibition activity”.
Consider `N#Cc1c(N2CCC3(CC2)COC3)c2ccncc2[nH]c1=O` [Compound 24, 2-oxo-4-(2-oxa-7-azaspiro[3.5]nonane-7-yl)-1,2-dihydro-1,7-naphthyridin-3-carbonitrile], for which the IC50 against PDE8A1 Enzyme is greater than 10000 nM; at PDE3A Enzyme, greater than 10000 nM; at PDE5A1 Enzyme, greater than 10000 nM; against PDE1A1 Enzyme, 4920 nM.
In the data set “in vitro”, `CC(C)(O)c1cc2c(N3CCC4(CCC4)CC3)c(C#N)c(=O)[nH]c2cn1` [Compound 82, 6-(2-hydroxypropan-2-yl)-2-oxo-4-(7-azaspiro[3.5]nonane-7-yl)-1,2-dihydro-1,7-naphthyridin-3-carbonitrile] had a half-life of 2.07 h. Also, in data set [4], the “Original drug residual % at 60 min” value was found to be 72.4%, the “k” value was found to be 0.9760 min⁻¹ and the CLint was 0.0112 mL · min^−1 · mg^−1 proteins.
For `OCCN(CCO)c1nc(N2CCCCC2)c2nc(N(CCO)CCO)nc(N3CCCCC3)c2n1` [dipyridamole], the “inhibition activity on PDE9” value on Human PDE9 [1] is on record as “no or very low inhibition activity”.
`N#Cc1c(N2CCC3(CCC3)CC2)c2cc(N3CC(O)C3)ncc2[nH]c1=O` [Compound 51, 6-(3-hydroxyazetidin-1-yl)-2-oxo-4-(7-azaspiro[3.5]nonane-7-yl)-1,2-dihydro-1,7-naphthyridin-3-carbonitrile] had a half-life in the data set “in vitro” of 2.1 h. Moreover, in data set [4], the “Original drug residual % at 60 min” value was 74.1%, the “k” value was found to be 0.9418 min⁻¹ and the CLint was 0.0110 mL · min^−1 · mg^−1 proteins.
The like results for `N#Cc1c(N2CCC3(CC2)CC3)c2ncccc2[nH]c1=O` [Compound 80, 2-oxo-4-(6-azaspiro[2.5]octane-6-yl)-1,2-dihydro-1,5-naphthyridin-3-carbonitrile] were, in that order, 0.792 h, 41.7%, 0.9877 min⁻¹ and 0.0292 mL · min^−1 · mg^−1 proteins.
Take `N#Cc1c(N2CCC3(CC2)CC3)c2cc(C(O)C3CC3)ncc2[nH]c1=O` (centres unmarked) [Compound 90, 6-(cyclopropyl (hydroxy)methyl)-2-oxo-4-(6-azaspiro[2.5]octane-6-yl)-1,2-dihydro-1,7-naphthyridin-3-carbonitrile]: in [3], the Tmax is 1 h, the AUC(0-t) is 3700 ng·h/mL, the half-life was 4.49 h and the bioavailability was 47.4%. The compound further showed a half-life in the data set “in vitro” of 3.12 h. In data set [4], the “Original drug residual % at 60 min” value is 80.5%, the “k” value came to 0.0037 min⁻¹ and the CLint was 0.0074 mL · min^−1 · mg^−1 proteins. Besides, in [5], the “Vz_obs iv (apparent distribution volume)” value is 1.38 L/kg, the AUC(0-t) amounted to 1590 ng·h/mL, the clearance was 10.5 mL/min/kg and the half-life is 1.48 h.
Consider `Nc1nc2c(ncn2[C@@H]2O[C@@H]3COP(=O)(O)O[C@H]3[C@H]2O)c(=O)[nH]1` [cGMP, cyclic guanosine monophosphate], for which the Km at Human PDE9 [2] is 0.17 µM.
For the compound `N#Cc1c(N2CCC3(CC2)CC3)c2ccncc2[nH]c1=O` [Compound 25, 2-oxo-4-(6-azaspiro[2.5]octane-6-yl)-1,2-dihydro-1,7-naphthyridin-3-carbonitrile], the time of peak concentration (Tmax) in data set [3] was found to be 1 h; in [6] (dog, plasma, po, intragastric 2 mg/kg, n = 3, median) it was 0.5 h. The AUC(0-t) in data set [3] came to 2050 ng·h/mL; in data set [5], 574 ng·h/mL. Also, the half-life in [3] is 1.4 h; in the data set “in vitro”, 5.25 h; in data set [6] (dog, plasma, po, intragastric 2 mg/kg, n = 3, read-out: tz1/2 po (terminal elimination half-life) (converted)), 9.45 h; in data set [6] (dog, plasma, intravenous bolus 1 mg/kg, n = 3, read-out: tz1/2 iv (terminal elimination half-life) (converted)), 10.4 h; in data set [5] it was 0.51 h. Also, the bioavailability in data set [3] amounted to 74.2%; in data set [6] (dog, plasma, dose iv/po 1/2 mg/kg, n = 3), 99.1%. The IC50 at PDE8A1 Enzyme, against PDE3A Enzyme, on PDE5A1 Enzyme and against PDE1A1 Enzyme was greater than 3000 nM in each case. For the same compound, the “Original drug residual % at 60 min” value in data set [4] came out at 87.5%. In addition, in [4], the “k” value was 0.0022 min⁻¹. Moreover, the CLint in [4] is 0.0044 mL · min^−1 · mg^−1 proteins. Moreover, the “Vz_obs iv (apparent distribution volume)” value in [6] (intravenous bolus 1 mg/kg, n = 3) is given as 7.06 L/kg; in [5] it was 1.27 L/kg. Further, the AUC(0-inf) in data set [6] (dog, plasma, po, intragastric 2 mg/kg, n = 3, read-out: AUCinf po) amounted to 4450 ng·h/mL; in data set [6] (dog, plasma, intravenous bolus 1 mg/kg, n = 3, read-out: AUCinf iv), 2240 ng·h/mL. Further, the clearance in [6] (dog, plasma, intravenous bolus 1 mg/kg, n = 3, read-out: Cl_obs iv (clearance rate) (converted)) is 7.83 mL/min/kg; in data set [5], 29.3 mL/min/kg.
As for `CCOC(=O)C1=C[C@]2(CC)CCCN3CCc4c(n1c1ccccc41)[C@@H]32` [vinpocetine], on Human PDE9 [1], the “inhibition activity on PDE9” value is “no or very low inhibition activity”.
For the compound `CC(C)Cn1c(=O)n(C)c(=O)c2[nH]cnc21` [IBMX], at Human PDE9 [1], the “inhibition activity on PDE9” value is recorded as “no or very low inhibition activity”.

One may read the Km as the concentration of substrate that gives half-maximal velocity. The term Tmax denotes the time at which the peak concentration occurs. What is called clearance is the rate of elimination divided by the concentration. For orientation: IC50 means the concentration at which inhibition is half-maximal. A higher IC50 goes with weaker potency in that assay.
